Measurements published in PMC7104545, “Unusually persistent Gαi-signaling of the neuropeptide Y2 receptor depletes cellular Gi/o pools and leads to a Gi-refractory state” (Cell Communication and Signaling : CCS, 2020).
Entries after “also recorded” stand apart in the source; their conditions may differ. Values belong to the compound of their own block, whether it stands above or below them. Where a SMILES comes first, the peptide text is derived from it. [ ]: non-standard residue; d: D form. Ahx = NCCCCCC(=O)O

Tests used:
hY2R = molecular target: T1, hY2R (Homo sapiens, UniProt P49146); assay: cAMP assay, HEK293 co-transfected hY2R/hY1R, Y2R addressed; type: cell-based
T1 construct: expressed in transfected cells; host or cells: HEK293 (transient transfection, pEYFP-N1 vector)
T1 sequence (P49146 1-381): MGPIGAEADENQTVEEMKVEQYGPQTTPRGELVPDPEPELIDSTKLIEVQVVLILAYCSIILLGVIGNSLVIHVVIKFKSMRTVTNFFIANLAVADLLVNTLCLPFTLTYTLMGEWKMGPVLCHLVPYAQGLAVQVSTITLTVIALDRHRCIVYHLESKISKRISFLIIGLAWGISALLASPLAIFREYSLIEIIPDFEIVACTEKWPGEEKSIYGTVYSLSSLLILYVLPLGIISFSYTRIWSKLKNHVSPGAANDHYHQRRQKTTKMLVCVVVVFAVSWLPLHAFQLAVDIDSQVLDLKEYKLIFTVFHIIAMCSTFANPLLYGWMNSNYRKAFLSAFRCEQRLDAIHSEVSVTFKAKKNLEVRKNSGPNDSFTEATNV
Experimental: (§1) HEK293 cells were grown in 25 cm^2 culture flask up to 70–80% confluence in a humidified atmosphere at 37 °C and 5% CO2. Co-transfection of 3000 ng pGL4.29[luc2P/CRE/Hygro] (Promega) plasmid and 3000 ng plasmid encoding for the respective receptor was performed using Metafectene® Pro (Biontex Laboratories GmbH) according to the manufacturer’s protocol. One-day post-transfection cells were seeded into white poly-D-lysine covert 96-well plates (Greiner Bio-one) and incubated overnight at 37 °C. For pertussis toxin experiments, medium was supplied with certain concentration (100 ng/ml, 250 ng/ml, 500 ng/ml) of pertussis toxin (Sigma). Two-day post-transfection cAMP experiments were performed with the help of ONE-Glo substrate (Promega), allowing luminescence measurement with the Tecan Infinite M200. […] For recycling, cells were incubated for 60 min with DMEM supplemented with 100 μg/ml CHX (Merck/Calbiochem®). […] As a positive control only 5 μM forskolin were added to the wells. After incubation, medium was exchanged by 30 μl fresh DMEM (RT). 30 μl ONE-Glo substrate was added and after 5 min of incubation the cAMP level was measured by detecting the luminescence. For co-transfection experiments the transfection of two receptors simultaneously and pGL4.29[luc2P/CRE/Hygro] plasmid were performed in a ratio 1:1:1, keeping the total amount of 6000 ng. […] The second stimulation was performed in a peptide concentration range, addressing the respective receptor that was missed in the first round.

[1] = molecular target: T2, neuropeptide Y2R (endogenous in SH-SY5Y cells) (Homo sapiens, UniProt P49146); assay: Ca^2+-flux assay, SH-SY5Y cells transfected with chimeric Gqi; type: cell-based
T2 construct: SH-SY5Y cells that endogenously expressing Y2R; endogenous in cells; host or cells: SH-SY5Y (transiently transfected with chimeric Gqi protein only)
T2 sequence (P49146 1-381): T1 sequence (P49146 1-381)
Experimental: (§2) HEK293 cells were grown in 25 cm^2 culture flask up to 70–80% confluence in a humidified atmosphere at 37 °C and 5% CO2. Co-transfection of 800 ng plasmid encoding the GαΔ6qi4myr protein and 3200 ng plasmid encoding for the Y2R fused C-terminally to eYFP was performed by using Metafectene® Pro (Biontex Laboratories GmbH) according to manufacturer’s protocol. One-day post transfection, cells were re-seeded (100.000 cells/well) into a black poly-D-lysine covert 96-well plates (Greiner Bio-one) and incubated overnight at 37 °C. Two-days post transfection Ca^2+ experiments were performed with the help of the FLIPR® Calcium Assay Kit (Molecular Devices). […] For recycling, cells were incubated for 60 min with assay buffer (20 mM HEPES, 2.5 mM Probenecid in HBSS, pH 7.5) supplemented with 100 μg/ml CHX (Merck/Calbiochem®) and 1 μM Fluor-2-AM staining dye. […] For the GαΔ6qi4myr overexpression experiments, the transfection ratio between receptor DNA and G protein DNA was varied from the initial concentration 4:1, using a total DNA amount of 4000 ng. By keeping the G protein amount equal to 800 ng, the resulting discrepancy was filled with pcDNA3.

adenylyl cyclase = assay: Impact of Ca^2+ and PKC on cellular cAMP level, HEK293-hY2R-eYFP; type: cell-based; conditions: 10 µM PKC inhibitor 30 min prior to stimulation with peptide; n≥2
[2] = molecular target: T3, human neuropeptide Y2 receptor (hY2R) (Homo sapiens, UniProt P49146); set-up: expressed in transfected cells; host or cells: HEK293 (transient transfection, pEYFP-N1 vector); conditions: ref [29]; cited from earlier work
T3 sequence (P49146 1-381): T1 sequence (P49146 1-381)
Source text: Contrary to the obviously low arrestin binding affinity, the unoccupied receptor apparently exists in a conformation that strongly favors G protein coupling. Kaiser et al. recently reported two different affinity states concerning Y2R binding properties. […].

[3] = molecular target: T3, human neuropeptide Y2 receptor (hY2R); assay: cAMP reporter gene assay, HEK293-hY2R; type: cell-based; set-up: expressed in transfected cells; host or cells: HEK293 (transient transfection, pEYFP-N1 vector)
Experimental: as §1

[4] = molecular target: T3, human neuropeptide Y2 receptor (hY2R); assay: TAMRA-NPY uptake in second stimulation, live cell microscopy (HEK293-HA-Y2R-eYFP); type: cell-based; set-up: expressed in transfected cells; host or cells: HEK293 (transient transfection, pEYFP-N1 vector); conditions: n ≥ 3
Experimental: HEK293 or HEK293-HA-Y2R-eYFP were re-seeded (150.00/well) into sterile poly-D-lysine covered μ-slide 8 wells (Ibidi) and grown in a humidified atmosphere at 37 °C and 5% CO2. For transfection, cells were cultured up to 70–80% confluency and subsequently transfected with 1.0 μg total DNA using Lipofectamine® 2000 transfection reagent (Invitrogen) according to the manufacturer’s protocol. For single transfection in empty HEK293 cells 1.0 μg of HA-Y2R-eYFP-N1 plasmid DNA was used. At the experimental day cells were starved in Opti-MEM® reduced serum medium (Gibco®) containing Hoechst33342 (Sigma) for 30 min at 37 °C. LysoTracker®Blue with a final concentration of 1 μM was used for visualization of the lysosomes. […] For recycling studies, cells were washed twice with acidic wash buffer (50 mM glycine, 100 mM NaCl, pH 3.0) and neutralized once with Hank’s balanced salt solution (HBSS; PAA), followed by a recovery period for 60 min in ligand-free media supplemented with 100 μg/ml cycloheximide (CHX; Merck/Calbiochem®) and with or without 20 mM NH4Cl as an expression inhibitor and recycling inhibitor respectively. […] All microscopy images were obtained using the AxioObserver.Z1 microscope equipped with an ApoTome imaging system (Zeiss, Jena). Within one experimental setup, all images were taken using a fixed exposure time for the single fluorescence channels.
Microscopy pictures were processed with the standard software Axio vision 4.8 and exported as an 8 Bit TIFF file (Tagged Image File Format). The open access software Image J was applied for the analysis of the pictures. For determination of mean cell surface fluorescence (MCSF) ten nonadjacent cells per image were measured using the segmented line function. Calculation of the relative TAMRA fluorescence, the Raw Intensity Density was measured under distinct conditions. The particular background fluorescence of each image was subtracted after every evaluation. Since this program uses the single gray levels for evaluation, the calculated values were evaluated retroactively as relative fluorescence intensity and analyzed with the statistical program GraphPad Prism.

[5] = system: HEK293-HA-hY2R-eYFP cells; assay: Intracellular fate of TAMRA-NPY (live cell microscopy, lysosomal stain, EEA1 immunostaining); type: cell-based, human
Experimental: HEK293-HA-hY2R-eYFP cells were seeded on poly-D-lysine coated coverslips (500.000 /well). […] Gradually preparation of all samples was performed in 10 min intervals of 2% paraformaldehyde (PFA)/PBS on ice, 2% PFA/PBS at RT and finally 4% PFA/PBS at RT. Samples were blocked and permeabilized with 10% BSA/0.1% TritonX-100/PBS for 1 h at RT. Incubation with anti-EEA1 (Santa Cruz, sc-33,585) (1:100) in 1% BSA/0.01% TritonX-100/PBS occurred overnight at 4 °C. The next day, samples were treated with anti-rabbit-AF350 (InvitrogenTM) (1:400) in 1% BSA/0.01% TritonX- 100/PBS for 2 h at RT and mounted with Fluoromount-G®.

hY4R = assay: Ca^2+-flux assay, HEK293 co-transfected hY2R/hY4R, PP to address Y4R; type: cell-based, human; conditions: 1 μM NPY first, acidic wash, 60 min recovery; Fig. S3B; n≥2
Experimental: as §2

HEK293-hY2R cells = assay: Cell toxicity by microscopy (cell morphology); type: cell-based, human; conditions: PTX 250 ng/ml
[6] = system: melanocortin 1 receptor (MCR1); assay: cAMP assay, HEK293 co-transfected hY2R/melanocortin 1 receptor; type: cell-based; conditions: PTX present; first stimulation 1 μM NPY
Experimental: HEK293 cells were grown in 25 cm^2 culture flask up to 70–80% confluence in a humidified atmosphere at 37 °C and 5% CO2. Co-transfection of 3000 ng pGL4.29[luc2P/CRE/Hygro] (Promega) plasmid and 3000 ng plasmid encoding for the respective receptor was performed using Metafectene® Pro (Biontex Laboratories GmbH) according to the manufacturer’s protocol. One-day post-transfection cells were seeded into white poly-D-lysine covert 96-well plates (Greiner Bio-one) and incubated overnight at 37 °C. For pertussis toxin experiments, medium was supplied with certain concentration (100 ng/ml, 250 ng/ml, 500 ng/ml) of pertussis toxin (Sigma). Two-day post-transfection cAMP experiments were performed with the help of ONE-Glo substrate (Promega), allowing luminescence measurement with the Tecan Infinite M200. […] For recycling, cells were incubated for 60 min with DMEM supplemented with 100 μg/ml CHX (Merck/Calbiochem®). […] As a positive control only 5 μM forskolin were added to the wells. After incubation, medium was exchanged by 30 μl fresh DMEM (RT). 30 μl ONE-Glo substrate was added and after 5 min of incubation the cAMP level was measured by detecting the luminescence. For co-transfection experiments the transfection of two receptors simultaneously and pGL4.29[luc2P/CRE/Hygro] plasmid were performed in a ratio 1:1:1, keeping the total amount of 6000 ng. […]

Emax (hY2R; HEK293, second stimulation after 1 μM F^7,P^34-NPY and 60 min recovery, Ahx^5–24-NPY control curve = 100%): 74%
Compound: CC[C@H](C)[C@H](NC(=O)[C@H](Cc1ccc(O)cc1)NC(=O)[C@H](Cc1c[nH]cn1)NC(=O)[C@H](CCCNC(=N)N)NC(=O)CCCCCNC(=O)[C@H](CCCCN)NC(=O)[C@H](CO)NC(=O)[C@@H]1CCCN1C(=O)[C@@H](N)Cc1ccc(O)cc1)C(=O)N[C@@H](CC(N)=O)C(=O)N[C@@H](CC(C)C)C(=O)N[C@H](C(=O)N[C@H](C(=O)N[C@@H](CCCNC(=N)N)C(=O)N[C@@H](CCC(N)=O)C(=O)N[C@@H](CCCNC(=N)N)C(=O)N[C@@H](Cc1ccc(O)cc1)C(N)=O)[C@@H](C)O)[C@@H](C)CC [Ahx^5–24-NPY] (H-YPSK[Ahx]RHYINLITRQRY-NH2)

EC50 (hY2R; Y1R/Y2R co-transfected HEK293, no first stimulation): 0.014 µM
EC50 (hY2R; second stimulation after 1 μM F^7,P^34-NPY and 60 min recovery): 0.028 µM
EC50 ([1]; no first stimulation, SH-SY5Y + Gqi, n ≥ 3): 0.0419 µM
Compound: CC[C@H](C)[C@H](NC(=O)[C@H](Cc1ccc(O)cc1)NC(=O)[C@H](Cc1cnc[nH]1)NC(=O)[C@H](CCCNC(=N)N)NC(=O)CCCCCNC(=O)[C@H](CCCCN)NC(=O)[C@H](CO)NC(=O)[C@@H]1CCCN1C(=O)[C@@H](N)Cc1ccc(O)cc1)C(=O)N[C@@H](CC(N)=O)C(=O)N[C@@H](CC(C)C)C(=O)N[C@H](C(=O)N[C@H](C(=O)N[C@@H](CCCNC(=N)N)C(=O)N[C@@H](CCC(N)=O)C(=O)N[C@@H](CCCNC(=N)N)C(=O)N[C@@H](Cc1ccc(O)cc1)C(N)=O)[C@@H](C)O)[C@@H](C)CC [Ahx^5–24-NPY] (H-YPSK[Ahx]RHYINLITRQRY-NH2)

increase of baseline intracellular cAMP by forskolin ([3]; 5 μM forskolin, Y2R-expressing HEK293, without NPY): ~ 10 fold
Compound: C=C[C@@]1(C)CC(=O)[C@]2(O)[C@@]3(C)[C@@H](O)CCC(C)(C)[C@@H]3[C@H](O)[C@H](OC(C)=O)[C@@]2(C)O1 [forskolin]

Ca^2+ activity in SH-SY5Y ([1]; SH-SY5Y, endogenous background, n≥3): no activity
Compound: pancreatic polypeptide [PP]
Ca^2+ response of PP after first stimulation with NPY (hY4R): obvious loss in activity, since no Ca^2+response was measured

Continued, compound first:

Compound: CN(C)CCCn1cc(C2=C(c3c[nH]c4ccccc34)C(=O)NC2=O)c2ccccc21 [Bisindolylmaleimide I]
effect of PKC inhibitor on adenylyl cyclase inhibition (adenylyl cyclase): abolished inhibitory effect of adenylyl cyclases and Y2R downstream signaling

Compound: Nc1nc2c(ncn2[C@@H]2O[C@H](COP(=O)(O)OP(=O)(O)OP(O)(O)=S)[C@@H](O)[C@H]2O)c(=O)[nH]1 [GTPγS, Guanosine 5′-O-[gamma-thio] triphosphate]
effect of GTPγS on total binding [2]: loss in total binding

Compound: TAMRA-NPY: fluorescent NPY derivative, 5-carboxytetramethylrhodamine (TAMRA)-NPY
TAMRA-NPY internalization in second stimulation, comparison 0 RE vs 60 RE ± NH4Cl ([4]; 1 μM NPY first, then 100 nM TAMRA-NPY 60 min): no difference in TAMRA internalization
TAMRA-NPY uptake, 0 RE ([4]; 1 μM NPY, acidic wash, direct second stimulation 100 nM TAMRA-NPY 60 min, 37 °C, control = 100%): 45 ± 5%
TAMRA-NPY uptake, 60 RE ([4]; 1 μM NPY, wash, 60 min recovery with CHX, then 100 nM TAMRA-NPY 60 min, control = 100%): 49 ± 4%
TAMRA-NPY uptake, 60 RE + NH4Cl ([4]; as 60 RE with 20 mM NH4Cl during recovery, control = 100%): 48 ± 46%
localisation after 60 min recycling period ([5]; 100 nM TAMRA-NPY, lysosomal marker LysoTracker Blue): degradation in lysosomes; also recorded: co-localized with the lysosomal marker
localisation in early endosomes ([5]; EEA1 immunostaining): intracellular accumulation of TAMRA-NPY in early and sorting endosomes
co-internalization with receptor ([5]; TAMRA-NPY 60 min, 37 °C): Co-internalization of the ligand-receptor-complex was observed

Compound: pertussis toxin [PTX]
cell toxicity (cell morphology) (HEK293-hY2R cells): no differences in cell morphology were observed
effect on inhibitory effect of Y2R (MCR1/Y2R cells) [6]: completely abolished; also recorded: abolishing the slight inhibitory effect
effect on maximal forskolin-induced cAMP response after NPY ([3]; PTX 250 ng/ml, treatment of cells with NPY first): AC-activity is rescued; also recorded: clearly rescued the maximal cAMP response; also recorded: adenylyl cyclase was still activatable by forskolin
effect of varying PTX concentrations on AC-activity ([3]; PTX 100, 250, 500 ng/ml, compared to control curve (Fig. 3f)): caused inhibition of AC-activity compared to control curve
